What all share (type): cell-based
What all share (conditions): Homo sapiens, compound 5 hours at 37° C., 1% DMSO, percent vehicle fit to 4 parameter curve

One assay deals with Aβ-38. The assay is described as follows: Aβ-38 level in conditioned media of 2B7 cells (MSD 3-PLEX ELISA). Summed up:
(§1)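 2B7 cells at confluence were exposed to compound dilutions in medium (1% DMSO final) for 5 h at 37 °C. Conditioned medium, diluted 1:1 in blocking buffer, was assayed by MSD 3-plex electrochemiluminescence ELISA, and levels were read from a seven-point standard curve. IC50 came from a 4-parameter fit of percent-of-vehicle values.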
Background: In an ELISA, binding on a coated surface is turned into a signal by an enzyme label.

Another assay relates to Aβ-42. The assay is described as follows: Aβ-42 level in conditioned media of 2B7 cells (MSD 3-PLEX ELISA). The method in brief:
as §1

A further assay has as its system Aβ-40. The assay is described as follows: Aβ-40 level in conditioned media of 2B7 cells (MSD 3-PLEX ELISA).

pIC50: −log10 of the molar value.

Experimental findings from patent publication US20130060013A1, “Compounds useful for treating neurodegenerative disorders” (SATORI PHARMACEUTICALS, INC., priority 2011, published 2013) are described below.

One may read the pIC50 as the negative decadic logarithm of the IC50, by convention in mol/L. Higher therefore signals a small IC50. Regarding `CCO[C@@H]([C@H]1C[C@@H](C)[C@H]2[C@H](O1)[C@H](O)[C@@]1(C)[C@@H]3CC[C@H]4C(C)(C)[C@@H](O[C@H]5CN([C@@H](C)CF)CCO5)CC[C@@]45C[C@@]35CC[C@]21C)C(C)(C)O`, the results for the pIC50 in the assay on Aβ-38, in the assay on Aβ-42 and in the assay with Aβ-40 were 5.00 to 6.00, 5.00 to 6.00 and less than 5.00, respectively.

Take `CCO[C@@H]([C@H]1C[C@@H](C)[C@H]2[C@H](O1)[C@H](O)[C@@]1(C)[C@@H]3CC[C@H]4C(C)(C)[C@@H](O[C@H]5CN(CC(=O)N6CCC6)CCO5)CCC45C[C@@]35CC[C@]21C)C(C)(C)O` (stereo partly drawn): the negative-log IC50 (pIC50) is greater than 6.00 in the assay on Aβ-38, greater than 6.00 in the assay on Aβ-42 and 5.00 to 6.00 in the assay on Aβ-40.

Turning to `CCO[C@@H]([C@H]1C[C@@H](C)[C@H]2[C@H](O1)[C@H](O)[C@@]1(C)[C@@H]3CC[C@H]4C(C)(C)[C@@H](O[C@H]5CN(Cc6ccn(C)n6)CCO5)CCC45C[C@@]35CC[C@]21C)C(C)(C)O` (stereo partly drawn), the pIC50 is 5.00 to 6.00 in the assay with Aβ-38, greater than 6.00 in the assay with Aβ-42 and less than 5.00 with Aβ-40.

`CC(C)[C@@H](OC(=O)N1CCC1)[C@H]1C[C@@H](C)[C@H]2[C@H](O1)[C@H](O)[C@@]1(C)[C@@H]3CC[C@H]4C(C)(C)[C@@H](O[C@H]5CN(C(=O)CN6CCC6)CCO5)CCC45C[C@@]35CC[C@]21C` (stereo partly drawn): the negative logarithm of the IC50 (pIC50) with Aβ-38 was greater than 6.00; with Aβ-42, greater than 6.00; in the assay on Aβ-40 it was 5.00 to 6.00.

Regarding `CCO[C@@H]([C@H]1C[C@@H](C)[C@H]2[C@H](O1)[C@H](O)[C@@]1(C)[C@@H]3CC[C@H]4C(C)(C)C(O[C@H]5CN(CCNC(=O)CCC6(C)N=N6)CCO5)CC[C@@]45CC35CC[C@]21C)C(C)(C)O` (stereo partly drawn), the values for the negative logarithm of the IC50 (pIC50) in the assay with Aβ-38, with Aβ-42 and in the assay with Aβ-40 were greater than 6.00, greater than 6.00 and less than 5.00, respectively.

Take `CCO[C@@H](C1C[C@@H](C)[C@H]2C(O1)[C@H](O)[C@@]1(C)C3CC[C@H]4C(C)(C)[C@@H](O[C@H]5CN(C(=O)CC6CNC6)CCO5)CCC45C[C@@]35CC[C@]21C)C(C)(C)O` (stereo partly drawn): the negative logarithm of the IC50 (pIC50) was greater than 6.00 in the assay on Aβ-38, greater than 6.00 in the assay with Aβ-42 and 5.00 to 6.00 in the assay on Aβ-40.

As to `CCO[C@@H]([C@H]1C[C@@H](C)[C@H]2[C@H](O1)[C@H](O)[C@@]1(C)[C@@H]3CC[C@H]4C(C)(C)[C@@H](O[C@H]5CN([C@@H](C)CN6CCC6)CCO5)CCC45C[C@@]35CC[C@]21C)C(C)(C)O` (stereo partly drawn), the negative-log IC50 (pIC50) in the assay with Aβ-38 is greater than 6.00; in the assay on Aβ-42, greater than 6.00; in the assay with Aβ-40 it was 5.00 to 6.00.

On to `CCO[C@@H]([C@H]1C[C@@H](C)[C@H]2[C@H](O1)[C@H](OCC)[C@@]1(C)[C@@H]3CC[C@H]4C(C)(C)[C@@H](O)CCC45C[C@@]35CC[C@]21C)C(C)(C)O` (stereo partly drawn), for which the negative logarithm of the IC50 (pIC50) with Aβ-38, with Aβ-42 and with Aβ-40 was 5.00 to 6.00 in each case.

Regarding `CCO[C@@H]([C@H]1C[C@@H](C)[C@H]2[C@H](O1)[C@H](O)[C@@]1(C)[C@@H]3CC[C@H]4C(C)(C)[C@@H](O[C@H]5CN(Cc6ncc[nH]6)CCO5)CCC45C[C@@]35CC[C@]21C)C(C)(C)O` (stereo partly drawn), the results for the negative-log IC50 (pIC50) in the assay with Aβ-38, in the assay on Aβ-42 and in the assay on Aβ-40 were greater than 6.00, greater than 6.00 and 5.00 to 6.00, respectively.

Take `CCO[C@@H]([C@H]1C[C@@H](C)[C@H]2[C@H](O1)[C@H](O)[C@@]1(C)[C@@H]3CC[C@H]4C(C)(C)[C@@H](OC(=O)[C@H]5COCCN5CCOC)CCC45C[C@@]35CC[C@]21C)C(C)(C)O` (stereo partly drawn): the values for the pIC50 in the assay on Aβ-38, in the assay with Aβ-42 and with Aβ-40 were greater than 6.00, greater than 6.00 and 5.00 to 6.00, respectively.

For `CCO[C@@H]([C@H]1C[C@@H](C)[C@H]2[C@H](O1)[C@H](O)[C@@]1(C)[C@@H]3CC[C@H]4C(C)(C)[C@@H](OC(=O)C5CN(C6CCC6)C5)CCC45C[C@@]35CC[C@]21C)C(C)(C)O` (stereo partly drawn), the pIC50 was greater than 6.00 in the assay with Aβ-38, greater than 6.00 with Aβ-42 and 5.00 to 6.00 in the assay with Aβ-40.

For `CCO[C@@H]([C@H]1C[C@@H](C)[C@H]2[C@H](O1)[C@H](O)[C@@]1(C)[C@@H]3CC[C@H]4C(C)(C)[C@@H](OC(=O)[C@H]5CNCCO5)CCC45C[C@@]35CC[C@]21C)C(C)(C)O` (stereo partly drawn), the negative logarithm of the IC50 (pIC50) in the assay on Aβ-38 is greater than 6.00; with Aβ-42, greater than 6.00; in the assay with Aβ-40, 5.00 to 6.00.

Take `CO[C@@H]([C@H]1C[C@@H](C)[C@H]2[C@H](O1)[C@H](O)[C@@]1(C)[C@@H]3CC[C@H]4C(C)(C)[C@@H](OC5CN(C6CN(C)C6)CCO5)CCC45C[C@@]35CC[C@]21C)C(C)(C)O` (stereo partly drawn): the pIC50 in the assay on Aβ-38 was greater than 6.00; in the assay with Aβ-42, greater than 6.00; in the assay on Aβ-40, 5.00 to 6.00.

As to `CO[C@@H]([C@H]1C[C@@H](C)[C@H]2[C@H](O1)[C@H](O)[C@@]1(C)[C@@H]3CC[C@H]4C(C)(C)[C@@H](O[C@H]5CN(CCN(C)C)CCO5)CCC45C[C@@]35CC[C@]21C)C(C)(C)OC` (stereo partly drawn), the pIC50 with Aβ-38 is greater than 6.00; with Aβ-42 it was greater than 6.00; with Aβ-40, 5.00 to 6.00.

In the case of `CO[C@@H]([C@H]1C[C@@H](C)[C@H]2[C@H](O1)[C@H](O)[C@@]1(C)[C@@H]3CC[C@H]4C(C)(C)[C@@H](O[C@H]5CN(CCN6CCOCC6)CCO5)CCC45C[C@@]35CC[C@]21C)C(C)(C)O` (stereo partly drawn), the pIC50 was greater than 6.00 in the assay on Aβ-38, greater than 6.00 in the assay with Aβ-42 and 5.00 to 6.00 in the assay on Aβ-40.
